Results from patent US20080075628A1, “STERILIZED MINOCYCLINE AND RIFAMPIN-CONTAINING MEDICAL DEVICE” (MEDTRONIC, INC., priority 2006, published 2008).
“And” between values parts separate entries of the source, which are not always exact repeats. Equal values may be shown once. Read-outs that look alike come from different tables or passages of the source.

Conditions: for Recoverable rifampin after sterilization, Post EtO % / Recoverable rifampin after sterilization, Post e-beam % / Recoverable rifampin after sterilization, Post gamma % / Recoverable rifampin after sterilization, Post Steam %: relative to pre-sterilization (100%)
Protocol: Materials and Methods: Minocycline and rifampin were incorporated into discs, sheet stock and silicone boots and subjected to Steam, EtO, gamma radiation and e-beam sterilization as follows:
Each boot was cut into pieces (24) with scissors. The pieces were extracted together in a 60-125 ml jar w/top. All the pieces were placed in jar, and 4:1 THF/ethanol (50 mL for thick boots; 15 mL for thin boots) was added. The pieces were allowed to swell, and the drug is extracted for 1 hour (1st extraction). The extract was then collected and transferred to a 25-100 mL volumetric flask. A second 4:1 THF/ethanol (50 mL for thick boots w/holes; 10 mL for thin boots with holes) extraction was added to the jar, and the transfer pipette was rinsed with this second extract and discarded. The pieces were allowed to swell, and the drug is extracted for 1 hour (2nd extraction). The extract was then collected and transferred to the 25-100 mL volumetric flask containing the first extract. A small amount of extra solvent was needed to make up to volume due to solvent lost to evaporation and polymer swell. This amount also served as a final rinse of both the polymer and the transfer pipette.
Extraction Process—Sheet Stock
Discs was cut from the sheet stock with a die press. The discs were extracted separate in a 1 oz jar w/top. 4:1 THF/ethanol (5 mL) was added. The pieces were allowed to swell, and the drug is extracted for 1 hour (1st extraction). The extract was then collected and transferred to a 10 mL volumetric flask. A second 4:1 THF/ethanol (5 mL) extraction was added to the jar, and the transfer pipette was rinsed with this second extract and discarded. The pieces were allowed to swell, and the drug is extracted for 1 hour. (2nd extraction). The extract was then collected and transferred to the 10 mL volumetric flask containing the first extract. A small amount of extra solvent was needed to make up to 10 mL due to solvent lost to evaporation and polymer swell. This amount also served as a final rinse of both the polymer and the transfer pipette.
After extraction with THF/ethanol 4:1, extract was transferred to an HPLC vial and injected directly. The following high performance liquid chromatography (HPLC) method was used:
1. Chromatographic Conditions: • Instrument: Agilent 1100 stack • Column: Prodigy analytical column (150×4.6 mm) • Detection mode: UV detection at 238 nm • Flow rate: 1.0 mL/min • Column temperature: 25° C. • Injection volume: 10 uL • Mobile phase A: 1.4 g/L dibasic sodium phosphate buffer pH 6.8 • Mobile phase B: ACN 100%

For CN(C)c1ccc(O)c2c1C[C@H]1C[C@H]3[C@H](N(C)C)C(O)=C(C(N)=O)C(=O)[C@@]3(O)C(O)=C1C2=O [minocycline], the “Recoverable minocycline remaining after sterilization, Post Steam %” value was 0% and the “minocycline remaining with EtO sterilization” value was 86.8-100%.

For CO[C@H]1/C=C/O[C@@]2(C)Oc3c(C)c(O)c4c(O)c(c(/C=N/N5CCN(C)CC5)c(O)c4c3C2=O)NC(=O)/C(C)=C\C=C\[C@H](C)[C@H](O)[C@@H](C)[C@@H](O)[C@@H](C)[C@H](OC(C)=O)[C@@H]1C [rifampin], the “rifampin remaining with EtO sterilization” value was 46.0-77.5%, the “Recoverable rifampin after sterilization, Post EtO %” value (“Recoverable rifampin … Post EtO %” below) (medium 4735–0.005″ Sheet stock) was 46.0% and the “Recoverable rifampin … Post EtO %” value (medium 4735–0.015″ Sheet stock) was 72.0%. The “Recoverable rifampin … Post EtO %” value (medium 4850–0.005″ Boot) was 65.4%, the “Recoverable rifampin … Post EtO %” value (medium 4850–0.005″ Sheet Stock) was 74.1% and 59.1% and the “Recoverable rifampin … Post EtO %” value (medium 4850–0.015″ Boot) was 77.5%. For the same compound, the “Recoverable rifampin … Post EtO %” value (medium 4850–0.015″ Sheet Stock) was 71.6%, the “Recoverable rifampin after sterilization, Post e-beam %” value (e-beam, medium 4735–0.015″ Boot) was 90.2% and the “Recoverable rifampin after sterilization, Post e-beam %” value (e-beam, medium 4735–0.015″ Sheet stock) was 95.1% and 92.4%. The “incorporated rifampin recovered after e-beam sterilization” value (e-beam, sheet stock, range) was 92.4-95.1%, the “incorporated rifampin recovered after ethylene oxide sterilization” value (ethylene oxide, sheet stock incorporating minocycline and rifampin, range over the media tested) was 46.0-74.1% and the “Recoverable rifampin after sterilization, Post gamma %” value (shortened to “Recoverable rifampin … Post gamma %”) (gamma radiation, medium 4735–0.005″ Sheet stock) was 81.4%. For the same compound, the “Recoverable rifampin … Post gamma %” value (gamma radiation, medium 4735–0.015″ Sheet stock) was 82.8% and 88.6%, the “Recoverable rifampin … Post gamma %” value (gamma radiation, medium 4850–0.005″ Sheet Stock) was 71.5% and the “Recoverable rifampin … Post gamma %” value (gamma radiation, medium 4850–0.015″ Sheet Stock) was 78.4%. For the same compound, the “incorporated rifampin recovered after gamma radiation” value (gamma radiation, sheet stock, range over the media tested) was 75.1-88.6%, the “Recoverable rifampin after sterilization, Post Steam %” value (shortened to “Recoverable rifampin … Post Steam %”) (steam sterilization, medium 4735–0.015″ Sheet stock) was 34.3% and the “Recoverable rifampin … Post Steam %” value (steam sterilization, medium 4850–0.005″ Sheet Stock) was 19.5%. For the same compound, the “Recoverable rifampin … Post Steam %” value (steam sterilization, medium 4850–0.015″ Sheet Stock) was 28.3% and the “rifampin recoverable after steam sterilization” value (steam sterilization, silicone sheet stock, range over the media tested) was 19.5 to 34.3%.
